In paper PMC9960821, “Evaluation of Rhenium and Technetium-99m Complexes Bearing Quinazoline Derivatives as Potential EGFR Agents” (Molecules, 2023):

Test: Biodistribution in healthy Swiss Albino mice after intravenous injection
Assay type: in vivo
Conditions: i.v.
Description: The pharmacokinetic profile of complexes 5b and 7b was evaluated in Swiss Albino healthy male mice at 5, 60, and 240 min post intravenous injection. Table 4 presents the results of the biodistribution studies expressed as % Injected Dose (ID)/g ± Standard Deviation (±SD). […] The high lipophilicity characterizing both complexes justifies the rapid hepatobiliary excretion, given the decreasing activity in the liver and the increasing amount of radioactivity in the intestines. Complex 5b presented faster clearance and elimination in the intestines at 60 min p.i. 34.05% of the radioactivity excreted, compared to 29.89% at 240 min p.i. of complex 7b. Radioactivity in the urine remained low in general, however, the lower logD7.4 value of complex 7b explains the relatively higher activity in the urines (7.88 ± 0.71%) as it is slightly more hydrophilic than 5b. Moreover, the low uptake in the brain indicates almost no blood-brain barrier penetration, although the complexes have favorable physicochemical characteristics.
All the biodistribution experiments were carried out in compliance with the national laws and European protocols (2010/63/EU) related to the conduct of animal experimentation. Nine healthy Swiss Albino mice (male, 30 ± 3 g), divided into three groups of three, were injected with the HPLC-purified 5b or 7b complex in saline with 10% EtOH (0.1 mL, ~75 kBq) through the tail vein. For each group, the animals were sacrificed by cardiectomy under slight ether anesthesia 5, 60, and 240 min after the injection. The organs of interest were excised, weighed, and counted in an automatic gamma counter. The bladder and excreted urine were not weighed. The stomach and intestines were not emptied of food contents prior to radioactivity measurements. The percentage of injected dose per organ (%ID/organ) was calculated by comparison of sample radioactivity to standard solutions containing 10% of the injected dose. The calculation for blood and muscle was based on measured activity, sample weight, and body composition data (considering that blood and muscle comprise 7 and 43% of body weight). The percentage of injected dose per gram (%ID/g) was calculated by dividing the %ID/organ by the weight of the organ or tissue.

In vivo stability (low spleen and stomach radioactivity; no oxidation to pertechnetate/TcO2): stable in vivo | Blood %Injected Dose/g (5 min): 0.85 ± 0.23 %Injected Dose/g | Brain %Injected Dose/g (5 min): 0.05 ± 0.02 %Injected Dose/g | Heart %Injected Dose/g (5 min): 0.80 ± 0.12 %Injected Dose/g | Intestines %Injected Dose/g (5 min): 9.22 ± 2.19 %Injected Dose/g | Kidneys %Injected Dose/g (5 min): 8.49 ± 1.33 %Injected Dose/g | Liver %Injected Dose/g (5 min): 27.68 ± 2.32 %Injected Dose/g | Lungs %Injected Dose/g (5 min): 0.97 ± 0.20 %Injected Dose/g | Muscle %Injected Dose/g (5 min): 0.19 ± 0.05 %Injected Dose/g | Pancreas %Injected Dose/g (5 min): 0.63 ± 0.09 %Injected Dose/g | Spleen %Injected Dose/g (5 min): 0.63 ± 0.09 %Injected Dose/g | Stomach %Injected Dose/g (5 min): 0.72 ± 0.25 %Injected Dose/g | Urine % ID (5 min): 0.09 ± 0.06 % ID | Blood %Injected Dose/g (60 min): 0.14 ± 0.03 %Injected Dose/g | Brain %Injected Dose/g (60 min): 0.03 ± 0.00 %Injected Dose/g | Heart %Injected Dose/g (60 min): 0.13 ± 0.03 %Injected Dose/g | Intestines %Injected Dose/g (60 min): 34.05 ± 2.05 %Injected Dose/g | Kidneys %Injected Dose/g (60 min): 1.28 ± 0.17 %Injected Dose/g | Liver %Injected Dose/g (60 min): 1.24 ± 0.24 %Injected Dose/g | Lungs %Injected Dose/g (60 min): 0.13 ± 0.03 %Injected Dose/g | Muscle %Injected Dose/g (60 min): 0.08 ± 0.01 %Injected Dose/g | Pancreas %Injected Dose/g (60 min): 0.10 ± 0.03 %Injected Dose/g | Spleen %Injected Dose/g (60 min): 0.11 ± 0.01 %Injected Dose/g | Stomach %Injected Dose/g (60 min): 0.64 ± 0.27 %Injected Dose/g | Urine % ID (60 min): 1.02 ± 0.17 % ID | Blood %Injected Dose/g (240 min): 0.08 ± 0.01 %Injected Dose/g | Brain %Injected Dose/g (240 min): 0.02 ± 0.00 %Injected Dose/g | Heart %Injected Dose/g (240 min): 0.05 ± 0.01 %Injected Dose/g | Intestines %Injected Dose/g (240 min): 37.28 ± 3.50 %Injected Dose/g | Kidneys %Injected Dose/g (240 min): 0.06 ± 0.01 %Injected Dose/g | Liver %Injected Dose/g (240 min): 0.39 ± 0.08 %Injected Dose/g | Lungs %Injected Dose/g (240 min): 0.08 ± 0.01 %Injected Dose/g | Muscle %Injected Dose/g (240 min): 0.07 ± 0.07 %Injected Dose/g | Pancreas %Injected Dose/g (240 min): 0.09 ± 0.00 %Injected Dose/g | Spleen %Injected Dose/g (240 min): 0.07 ± 0.02 %Injected Dose/g | Stomach %Injected Dose/g (240 min): 0.60 ± 0.18 %Injected Dose/g | Urine % ID (240 min): 1.33 ± 0.14 % ID
Compound: O=C([O-])CN(CCCCCC(=O)Nc1ccc2ncnc(Nc3cccc(Br)c3)c2c1)Cc1ccccn1.[99Tc+].[C-]#[O+].[C-]#[O+].[C-]#[O+] [Compound 5b, fac-[^99mTc(NNO)(CO)3]]
